What was measured:
Test in all cases: relative viability (nuclei count vs DMSO), 5 days (fraction); higher = more cells survive
[1] = compound: CC1=C(C(=O)N2C=CSC2=N1)CCN3CCC(=C(C4=CC=CC=C4)C5=CC=C(C=C5)F)CC3 + CS(=O)(=O)CCNCc1ccc(-c2ccc3ncnc(Nc4ccc(OCc5cccc(F)c5)c(Cl)c4)c3c2)o1 [Lapatinib] (partner 2 µM)
In short: (§1)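 Nuclei were stained with Hoechst during a one-step fixation (final 0.05% Triton X-100, 1% formaldehyde, 1 ug/ml Hoechst) carried out 5 days after dosing, then counted on 4× images. The cells, lung cancer lines in 1536-well plates, had been dosed by pin tool the day after seeding with one drug alone or a fixed anchor-drug dose plus five library-drug doses (not always all listed) in √10 steps. Relative viability is the nuclei count in treated wells divided by that in vehicle wells, and each value is the median of duplicate plates.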

[2] = compound: CC1=C(C(=O)N2C=CSC2=N1)CCN3CCC(=C(C4=CC=CC=C4)C5=CC=C(C=C5)F)CC3 + C[C@@H](Oc1cc(-c2cnn(C3CCNCC3)c2)cnc1N)c1c(Cl)ccc(F)c1Cl [Crizotinib] (partner 1 µM)
In short: as §1

[3] = compound: CC1=C(C(=O)N2C=CSC2=N1)CCN3CCC(=C(C4=CC=CC=C4)C5=CC=C(C=C5)F)CC3 + Cc1nc(Nc2ncc(C(=O)Nc3c(C)cccc3Cl)s2)cc(N2CCN(CCO)CC2)n1 [Dasatinib] (partner 0.075 µM)
In short: as §1

[4] = compound: CC1=C(C(=O)N2C=CSC2=N1)CCN3CCC(=C(C4=CC=CC=C4)C5=CC=C(C=C5)F)CC3 + Nc1nc2[nH]cc(CCc3ccc(C(=O)N[C@@H](CCC(=O)O)C(=O)O)cc3)c2c(=O)[nH]1 [Pemetrexed] (partner 0.2 µM)
In short: as §1

Cell Line | relative viability ([1]; first compound 0.08 µM) | relative viability ([1]; first compound 0.253 µM) | relative viability ([1]; first compound 0.8 µM) | relative viability ([1]; first compound 2.53 µM) | relative viability ([1]; first compound 8 µM) | relative viability ([2]; first compound 0.08 µM) | relative viability ([2]; first compound 0.253 µM) | relative viability ([2]; first compound 0.8 µM) | relative viability ([2]; first compound 2.53 µM) | relative viability ([2]; first compound 8 µM) | relative viability ([3]; first compound 0.08 µM) | relative viability ([3]; first compound 0.253 µM) | relative viability ([3]; first compound 0.8 µM) | relative viability ([3]; first compound 2.53 µM) | relative viability ([3]; first compound 8 µM) | relative viability ([4]; first compound 0.08 µM) | relative viability ([4]; first compound 0.253 µM) | relative viability ([4]; first compound 0.8 µM) | relative viability ([4]; first compound 2.53 µM) | relative viability ([4]; first compound 8 µM)
LXF-289 | 0.98 | 0.953 | 0.926 | 0.907 | 0.844 | 0.911 | 0.93 | 0.891 | 0.797 | 0.773 | 0.276 | 0.18 | 0.214 | 0.209 | 0.189 | 0.931 | 0.883 | 0.871 | 0.901 | 0.76
NCI-H1355 | 1.04 | 0.981 | 1.03 | 0.997 | 0.885 | 1.12 | 1.16 | 1.04 | 1.17 | 0.712 | 0.698 | 0.605 | 0.769 | 0.771 | 0.632 | 1.09 | 1.04 | 1.02 | 1.1 | 0.97
NCI-H1755 | 1.08 | 1.01 | 1.05 | 1.08 | 0.861 | 0.927 | 0.87 | 0.907 | 0.997 | 0.722 | 0.373 | 0.422 | 0.462 | 0.401 | 0.269 | 0.456 | 0.437 | 0.41 | 0.405 | 0.38
NCI-H661 | 0.428 | 0.469 | 0.538 | 0.39 | 0.355 | 0.848 | 1.01 | 1.21 | 1 | 0.801 | 0.862 | 0.847 | 0.75 | 0.913 | 0.628 | 0.961 | 0.98 | 0.924 | 0.995 | 0.493
LCLC-97TM1 | 0.7 | 1 | 1.08 | 1.03 | 0.677 | 0.453 | 0.367 | 0.307 | 0.263 | 0.343 | 0.857 | 0.773 | 0.949 | 0.92 | 0.658 | 0.196 | 0.19 | 0.173 | 0.198 | 0.196
NCI-H1792 | 1.02 | 0.401 | 0.931 | 0.921 | 0.489 | 1.01 | 0.671 | 1.02 | 1.11 | 0.549 | 0.72 | 0.574 | 0.817 | 0.837 | 0.352 | 0.523 | 0.543 | 0.606 | 0.626 | 0.293
NCI-H3122 | 1.01 | 1.14 | 1.03 | 1.2 | 0.964 | 0.286 | 0.262 | 0.258 | 0.316 | 0.267 | 1.02 | 0.769 | 0.781 | 1.06 | 0.524 | 0.192 | 0.188 | 0.201 | 0.214 | 0.163

From the supplement of paper PMC10307832
